# In ChEMBL document CHEMBL1201862, “PubChem BioAssay data set” (2004):
# Active and inactive are the calls of the source.
# Key:
# [1] = test system: Escherichia coli; assay: microbe, parasite or virus in culture
# [2] = molecular target: T1, Microphthalmia-associated transcription factor (Homo sapiens, UniProt O75030); assay: TRPM1 promoter luciferase signal decrease, dose response, MITF inhibitor project, cell-based, SK-MEL-5, cherry-picked, set 3 (AID 493073); format: functional
# T1 sequence (O75030 whole entry): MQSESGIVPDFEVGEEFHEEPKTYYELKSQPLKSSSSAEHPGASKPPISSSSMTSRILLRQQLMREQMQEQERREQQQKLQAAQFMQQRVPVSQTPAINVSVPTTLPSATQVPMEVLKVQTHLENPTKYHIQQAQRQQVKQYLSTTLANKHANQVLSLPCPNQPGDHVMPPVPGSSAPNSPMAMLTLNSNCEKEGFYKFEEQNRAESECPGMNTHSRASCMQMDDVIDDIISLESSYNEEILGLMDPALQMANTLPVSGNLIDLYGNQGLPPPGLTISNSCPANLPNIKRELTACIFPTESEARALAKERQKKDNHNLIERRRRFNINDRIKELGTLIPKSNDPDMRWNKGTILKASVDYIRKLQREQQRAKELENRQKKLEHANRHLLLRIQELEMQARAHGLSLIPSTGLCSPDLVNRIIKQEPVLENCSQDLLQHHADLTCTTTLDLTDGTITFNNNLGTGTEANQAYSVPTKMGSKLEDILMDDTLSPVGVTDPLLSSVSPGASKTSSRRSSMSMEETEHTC
# [3] = molecular target: T2, Replicative DNA helicase DnaB (Mycobacterium tuberculosis, UniProt P9WMR3); assay: DnaB intein splicing inhibitors, dose response, biochemical, cell-free fluorescence (AID 449749); format: functional
# T2 sequence (P9WMR3 whole entry): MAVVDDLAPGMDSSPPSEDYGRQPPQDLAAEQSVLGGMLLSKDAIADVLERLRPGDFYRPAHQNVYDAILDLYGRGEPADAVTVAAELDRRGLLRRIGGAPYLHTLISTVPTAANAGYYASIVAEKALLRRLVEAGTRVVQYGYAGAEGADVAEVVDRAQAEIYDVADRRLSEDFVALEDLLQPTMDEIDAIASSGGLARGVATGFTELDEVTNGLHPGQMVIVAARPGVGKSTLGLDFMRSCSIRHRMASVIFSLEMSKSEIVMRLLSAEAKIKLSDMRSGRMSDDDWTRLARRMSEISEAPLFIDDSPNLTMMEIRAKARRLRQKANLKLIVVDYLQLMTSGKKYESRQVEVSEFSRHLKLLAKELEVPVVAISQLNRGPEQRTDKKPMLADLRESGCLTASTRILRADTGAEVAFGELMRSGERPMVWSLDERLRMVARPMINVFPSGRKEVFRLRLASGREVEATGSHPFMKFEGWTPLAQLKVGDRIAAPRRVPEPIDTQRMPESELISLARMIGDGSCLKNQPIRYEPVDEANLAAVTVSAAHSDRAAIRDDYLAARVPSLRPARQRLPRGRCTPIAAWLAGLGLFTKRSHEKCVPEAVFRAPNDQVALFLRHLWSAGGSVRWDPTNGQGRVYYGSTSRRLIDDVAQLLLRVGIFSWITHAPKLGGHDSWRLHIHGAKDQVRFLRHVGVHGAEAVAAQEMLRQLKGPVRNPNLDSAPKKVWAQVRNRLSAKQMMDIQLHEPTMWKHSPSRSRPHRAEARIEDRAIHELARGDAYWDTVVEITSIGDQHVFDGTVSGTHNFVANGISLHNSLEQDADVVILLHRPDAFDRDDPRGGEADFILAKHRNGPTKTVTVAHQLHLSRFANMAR
# [4] = molecular target: T3, Apoptotic protease-activating factor 1 (Homo sapiens, UniProt O14727); format: functional
# T3 sequence (O14727 whole entry): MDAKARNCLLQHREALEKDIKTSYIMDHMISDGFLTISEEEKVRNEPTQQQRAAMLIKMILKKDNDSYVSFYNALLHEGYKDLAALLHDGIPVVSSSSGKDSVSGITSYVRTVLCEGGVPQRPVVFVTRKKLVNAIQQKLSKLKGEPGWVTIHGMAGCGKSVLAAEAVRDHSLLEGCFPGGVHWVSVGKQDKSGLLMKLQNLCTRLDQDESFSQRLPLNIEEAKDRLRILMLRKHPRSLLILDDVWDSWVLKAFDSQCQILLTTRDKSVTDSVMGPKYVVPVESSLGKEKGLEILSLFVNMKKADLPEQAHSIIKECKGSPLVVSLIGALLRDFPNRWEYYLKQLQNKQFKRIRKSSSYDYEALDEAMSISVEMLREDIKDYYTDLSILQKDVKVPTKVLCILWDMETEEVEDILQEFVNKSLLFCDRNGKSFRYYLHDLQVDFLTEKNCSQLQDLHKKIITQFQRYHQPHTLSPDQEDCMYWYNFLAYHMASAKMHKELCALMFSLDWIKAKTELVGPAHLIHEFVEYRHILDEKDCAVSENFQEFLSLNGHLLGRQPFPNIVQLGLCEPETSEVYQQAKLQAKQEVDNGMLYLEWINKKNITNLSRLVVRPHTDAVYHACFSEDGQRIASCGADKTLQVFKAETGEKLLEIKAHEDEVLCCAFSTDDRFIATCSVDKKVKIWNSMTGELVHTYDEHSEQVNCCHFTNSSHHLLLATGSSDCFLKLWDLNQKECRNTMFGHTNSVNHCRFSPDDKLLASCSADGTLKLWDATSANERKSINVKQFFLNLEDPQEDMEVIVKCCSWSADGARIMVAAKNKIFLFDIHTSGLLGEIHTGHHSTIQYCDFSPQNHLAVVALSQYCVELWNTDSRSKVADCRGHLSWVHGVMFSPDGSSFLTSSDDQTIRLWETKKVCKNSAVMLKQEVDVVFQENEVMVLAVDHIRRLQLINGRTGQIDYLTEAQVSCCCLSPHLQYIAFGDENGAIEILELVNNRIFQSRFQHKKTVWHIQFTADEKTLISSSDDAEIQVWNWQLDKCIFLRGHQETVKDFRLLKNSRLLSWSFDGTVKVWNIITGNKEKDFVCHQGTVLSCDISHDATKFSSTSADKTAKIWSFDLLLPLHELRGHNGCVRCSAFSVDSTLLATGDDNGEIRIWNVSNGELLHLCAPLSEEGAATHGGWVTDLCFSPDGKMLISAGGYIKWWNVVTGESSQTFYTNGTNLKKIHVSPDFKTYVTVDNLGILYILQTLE
# [5] = molecular target: T4, Protein RecA (Mycobacterium tuberculosis, UniProt P9WHJ3); assay: Fluorescence Cell-Free Homogeneous Dose Retest to Identify Inhibitors of RecA-Intein Splicing Activity. [Related pubchem assays (depositor defined):AID2097, AID2223, AID489010, AID492950]; format: functional
# T4 sequence (P9WHJ3 whole entry): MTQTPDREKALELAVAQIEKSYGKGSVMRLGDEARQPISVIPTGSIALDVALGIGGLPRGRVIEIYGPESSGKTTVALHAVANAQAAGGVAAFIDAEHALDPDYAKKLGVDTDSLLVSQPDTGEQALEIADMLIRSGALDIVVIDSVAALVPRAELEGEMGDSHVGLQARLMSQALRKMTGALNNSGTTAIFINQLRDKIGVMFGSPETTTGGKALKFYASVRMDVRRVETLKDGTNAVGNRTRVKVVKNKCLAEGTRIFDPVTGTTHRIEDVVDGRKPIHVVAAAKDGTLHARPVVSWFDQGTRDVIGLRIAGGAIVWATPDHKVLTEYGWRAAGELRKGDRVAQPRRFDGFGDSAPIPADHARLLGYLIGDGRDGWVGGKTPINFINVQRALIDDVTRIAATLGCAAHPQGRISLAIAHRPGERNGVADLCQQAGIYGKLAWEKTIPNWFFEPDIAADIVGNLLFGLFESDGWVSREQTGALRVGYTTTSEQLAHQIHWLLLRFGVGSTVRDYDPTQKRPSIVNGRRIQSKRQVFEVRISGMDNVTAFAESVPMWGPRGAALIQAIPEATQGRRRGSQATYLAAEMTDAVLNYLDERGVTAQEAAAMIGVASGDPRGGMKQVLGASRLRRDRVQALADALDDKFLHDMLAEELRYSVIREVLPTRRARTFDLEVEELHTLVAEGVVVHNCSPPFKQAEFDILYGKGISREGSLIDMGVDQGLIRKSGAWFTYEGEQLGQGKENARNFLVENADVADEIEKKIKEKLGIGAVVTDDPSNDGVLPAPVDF
# [6] = test system: A-375; assay: MITF: Counter assay: A375 proliferation Measured in Cell-Based System Using Plate Reader - 2084-03_Inhibitor_Dose_DryPowder_Activity. [Related pubchem assays (depositor defined):AID488944]; format: functional; conditions: Homo sapiens
# [7] = NIH-3T3 fibroblast cytotoxicity, dose response, cytotoxicity control, cell-based, fluorescence, Alamar Blue, secondary assay (AID 2327); format: functional;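 note: NIH-3T3 mouse fibroblasts cultured with fluconazole at 8 µg/mL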
# [8] = C. albicans growth with fluconazole, confirmation, fluorescence, retest (AID 2467); format: functional, cell-based
# [9] = molecular target: T5, Serine/threonine-protein phosphatase (Candida dubliniensis (strain CD36 / CBS 7987 / NCPF 3949 / NRRLY-17841) (Yeast), UniProt B9W6M3); assay: calcineurin pathway inhibitors in yeast reporter, dose response, S. cerevisiae, CDRE-lacZ, luminescence, secondary (AID 2388); format: functional, cell-based;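 note: yeast reporter cells carrying a calcineurin-responsive lacZ construct stimulated with calcium chloride; luminescent beta-galactosidase reporter signal in whole cells rather than isolated phosphatase activity; potency for inhibition where a drop in reporter signal means calcineurin blockade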
# T5 sequence (B9W6M3 whole entry): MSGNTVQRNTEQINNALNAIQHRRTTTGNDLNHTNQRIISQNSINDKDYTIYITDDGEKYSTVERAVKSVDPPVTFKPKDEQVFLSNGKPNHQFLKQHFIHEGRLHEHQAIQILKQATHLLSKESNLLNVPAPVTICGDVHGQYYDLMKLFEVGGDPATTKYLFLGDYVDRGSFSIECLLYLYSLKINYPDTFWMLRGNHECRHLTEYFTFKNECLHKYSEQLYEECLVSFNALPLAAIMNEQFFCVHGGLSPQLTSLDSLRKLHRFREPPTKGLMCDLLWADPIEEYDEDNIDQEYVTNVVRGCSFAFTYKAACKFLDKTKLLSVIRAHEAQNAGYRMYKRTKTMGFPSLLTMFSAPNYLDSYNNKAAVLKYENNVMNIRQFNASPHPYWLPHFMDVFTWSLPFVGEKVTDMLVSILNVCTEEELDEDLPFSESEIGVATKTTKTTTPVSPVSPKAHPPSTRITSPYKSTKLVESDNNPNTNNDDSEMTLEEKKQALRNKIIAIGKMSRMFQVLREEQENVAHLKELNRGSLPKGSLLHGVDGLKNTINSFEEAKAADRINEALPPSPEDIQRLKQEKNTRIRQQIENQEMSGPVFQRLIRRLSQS
# [10] = molecular target: ATP-dependent molecular chaperone HSP82 (Candida albicans (strain WO-1) (Yeast), UniProt C4YTQ8); assay: loss of DOC-induced GRE-beta-galactosidase reporter signal, dose response, Hsp90 inhibitor project, S. cerevisiae, luminescence (AID 2400); format: functional, cell-based;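 note: beta-galactosidase luminescence from glucocorticoid response element reporter as proxy for Hsp90 function; inhibitor potency where signal loss means Hsp90 inhibition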
# ATP-dependent molecular chaperone HSP82, sequence (C4YTQ8 whole entry): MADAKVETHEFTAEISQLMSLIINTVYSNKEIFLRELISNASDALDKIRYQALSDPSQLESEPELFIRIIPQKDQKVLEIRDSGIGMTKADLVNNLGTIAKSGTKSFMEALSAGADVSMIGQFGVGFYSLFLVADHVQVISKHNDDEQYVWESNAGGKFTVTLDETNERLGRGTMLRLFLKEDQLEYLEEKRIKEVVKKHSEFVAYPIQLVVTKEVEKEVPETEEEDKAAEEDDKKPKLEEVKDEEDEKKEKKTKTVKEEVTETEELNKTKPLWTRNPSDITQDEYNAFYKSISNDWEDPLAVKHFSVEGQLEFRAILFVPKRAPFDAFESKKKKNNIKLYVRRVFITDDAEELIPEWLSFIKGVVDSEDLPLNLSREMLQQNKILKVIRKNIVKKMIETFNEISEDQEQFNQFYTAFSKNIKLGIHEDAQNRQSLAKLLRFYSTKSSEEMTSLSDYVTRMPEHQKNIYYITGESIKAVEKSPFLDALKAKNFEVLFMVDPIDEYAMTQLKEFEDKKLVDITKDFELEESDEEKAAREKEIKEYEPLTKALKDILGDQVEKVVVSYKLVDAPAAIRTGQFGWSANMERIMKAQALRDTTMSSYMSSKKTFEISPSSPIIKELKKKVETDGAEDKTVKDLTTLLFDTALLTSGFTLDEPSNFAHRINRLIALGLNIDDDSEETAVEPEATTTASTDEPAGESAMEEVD
compound,measurement,setting,value
CC1(C)CC(=O)C/C(=N\NC(=O)CCc2ccc(S(=O)(=O)N3CCOCC3)cc2)C1,AC50,[1],44.6 µM (active)
CC1=C(CC(=O)c2ccccc2)C(=O)c2ccccc2C1=O,AC50,[2],7.15 µM (active)
same,AC50,[3],18.7 µM (active)
same,IC50,[4],28.8 µM (active)
same,EC50,[5],3.45 µM (active)
same,AC50,[6],42.7 µM (active)
CCCCCCSc1nnc2nc(O)cc(N)n12,EC50,[7],79.9 µM (active)
same,EC50,[8],0.52 µM (active)
same,EC50,[9],> 180 µM (inactive)
same,EC50,[10],> 150 µM (inactive)
